Measurements reported in US20180284095A1, “BIOMARKERS ASSOCIATED WITH LSD1 INHIBITORS AND USES THEREOF” (Oryzon Genomics, S.A., priority 2015, published 2018).

Target: T1, Human recombinant monoamine oxidase MAO-A (Homo sapiens, UniProt P21397)
T1 construct: purchased Sigma Aldrich
T1 sequence (P21397 1-527): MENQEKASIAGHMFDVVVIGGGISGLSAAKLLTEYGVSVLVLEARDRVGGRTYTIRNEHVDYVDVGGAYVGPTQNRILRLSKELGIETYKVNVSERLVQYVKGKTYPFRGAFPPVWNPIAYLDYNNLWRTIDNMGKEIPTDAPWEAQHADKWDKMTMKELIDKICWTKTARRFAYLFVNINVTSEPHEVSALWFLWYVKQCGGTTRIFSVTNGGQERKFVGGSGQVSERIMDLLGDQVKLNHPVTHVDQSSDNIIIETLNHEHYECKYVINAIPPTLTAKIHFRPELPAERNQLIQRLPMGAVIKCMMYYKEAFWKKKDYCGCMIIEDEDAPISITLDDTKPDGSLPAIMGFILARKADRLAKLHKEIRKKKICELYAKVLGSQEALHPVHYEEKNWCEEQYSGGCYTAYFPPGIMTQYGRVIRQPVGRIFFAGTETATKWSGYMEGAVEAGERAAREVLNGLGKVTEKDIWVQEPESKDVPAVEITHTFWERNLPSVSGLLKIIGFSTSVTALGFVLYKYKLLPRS
Test: MAO-A fluorescence-based kynuramine assay
Format: biochemical
From the text: LSD1 has a fair degree of structural similarity and amino acid identity/homology with the flavin-dependent amine oxidases monoamine oxidase A (MAO-A) and B (MAO-B). To determine the level of selectivity of a LSD1 inhibitor versus MAO-A and MAO-B, the inhibitory activity of a compound of interest against MAO-A and MAO-B can be tested using the method described below: Human recombinant monoamine oxidase proteins MAO-A and MAO-B were purchased from Sigma Aldrich.
MAOs catalyze the oxidative deamination of primary, secondary and tertiary amines. In order to monitor MAO enzymatic activities and/or their inhibition rate by inhibitor(s) of interest, a fluorescence-based (inhibitor)-screening assay was set up. 3-(2-Aminophenyl)-3-oxopropanamine (kynuramine dihydrobromide, Sigma Aldrich), a non fluorescent compound was chosen as a substrate. Kynuramine is a non-specific substrate for both MAO-A and MAO-B activities. While undergoing oxidative deamination by MAO activities, kynuramine is converted into 4-hydroxyquinoline (4-HQ), a resulting fluorescent product.
The monoamine oxidase activity was estimated by measuring the conversion of kynuramine into 4-hydroxyquinoline. Assays were conducted in 96-well black plates with clear bottom (Corning) in a final volume of 100 μL. The assay buffer was 100 mM HEPES, pH 7.5. Each experiment was performed in duplicate within the same experiment.
Briefly, a fixed amount of MAO was incubated on ice for 15 minutes in the reaction buffer, in the absence and/or in the presence of at least eight 3-fold serial dilutions each. Clorgyline and Deprenyl (Sigma Aldrich) was used as a control for specific inhibition of MAO-A and MAO-B respectively.
After leaving the enzyme(s) interacting with the inhibitor, KM of kynuramine was added to each reaction for MAO-B and MAO-A assay respectively, and the reaction was left for 1 hour at 37° C. in the dark. The oxidative deamination of the substrate was stopped by adding 50 μL of NaOH 2N. The conversion of kynuramine to 4-hydroxyquinoline, was monitored by fluorescence (excitation at 320 nm, emission at 360 nm) using a microplate reader (Infinite 200, Tecan). Arbitrary units were used to measure levels of fluorescence produced in the absence and/or in the presence of inhibitor.
The maximum of oxidative deamination activity was obtained by measuring the amount of 4-hydroxyquinoline formed from kynuramine deamination in the absence of inhibitor and corrected for background fluorescence in the absence of MAO enzymes. The IC50 values of each inhibitor were calculated with GraphPad Prism Software.

Compound | IC50 [µM]
NC(=O)CN[C@H]1C[C@@H]1c1ccc(OCc2ccccc2)cc1 (racemic) [Compound 3, 2-(((trans)-2-(4-(benzyloxy)phenyl)cyclopropyl)amino)acetamide] | 2.3
CN1CCN(C(=O)CN[C@H]2C[C@@H]2c2ccc(OCc3ccccc3)cc2)CC1 (racemic) [Compound 4, 2-(((trans)-2-(4-(benzyloxy)phenyl)cyclopropyl)amino)-1-(4-methylpiperazin-1-yl)ethan-1-one] | 4.6
N[C@H]1CCN(CCN[C@H]2C[C@@H]2c2ccc(-c3cccc(C(F)(F)F)c3)cc2)C1 (racemic) [Compound 5, (S)-1-(2-(((trans)-2-(3′-(trifluoromethyl)-[1,1′-biphenyl]-4-yl)cyclopropyl)amino)ethyl)pyrrolidin-3-amine] | 3.4
(+) 5-((((trans)-2-(4-(benzyloxy)phenyl)cyclopropyl)amino)methyl)-1,3,4-oxadiazol-2-amine [Compound 2] | 3.8
(−) 5-((((trans)-2-(4-(benzyloxy)phenyl)cyclopropyl)amino)methyl)-1,3,4-oxadiazol-2-amine [Compound 1] | 5.3
